Data set [1] can be described thus: The drug is tested on Z-028 corresponding to mouse gut metagenome with ENA study accession number: PRJEB37062 and ENA sample accession number: ERS12561827 for biotransformation under anaerobic condition. The drug concentrations were measured over 9 timepoints collected between 0 and 24 hours of incubation by liquid-chromatography-coupled mass spectrometry (LC–MS). As to conditions: 2 µM.

Data set [2] in a line: The drug is tested on Z-027 corresponding to metagenome with ENA study accession number: PRJEB37062 and ENA sample accession number: ERS12561826 for biotransformation under anaerobic condition. The drug concentrations were measured over 9 timepoints collected between 0 and 24 hours of incubation by liquid-chromatography-coupled mass spectrometry (LC–MS). The conditions noted are these: 2 µM.

A short description of data set [3]: The drug is tested on Z-025 corresponding to rabbit gut metagenome with ENA study accession number: PRJEB37062 and ENA sample accession number: ERS12561824 for biotransformation under anaerobic condition. The drug concentrations were measured over 9 timepoints collected between 0 and 24 hours of incubation by liquid-chromatography-coupled mass spectrometry (LC–MS). The conditions noted are these: 2 µM.

Data set [4] is described as follows: The drug is tested on Z-024 corresponding to pig gut metagenome with ENA study accession number: PRJEB37062 and ENA sample accession number: ERS12561823 for biotransformation under anaerobic condition. The drug concentrations were measured over 9 timepoints collected between 0 and 24 hours of incubation by liquid-chromatography-coupled mass spectrometry (LC–MS). As to conditions: 2 µM.

Data set [5] can be described thus: The drug is tested on Z-022 corresponding to mouse gut metagenome with ENA study accession number: PRJEB37062 and ENA sample accession number: ERS12561821 for biotransformation under anaerobic condition. The drug concentrations were measured over 9 timepoints collected between 0 and 24 hours of incubation by liquid-chromatography-coupled mass spectrometry (LC–MS). As to conditions: 2 µM.

A short description of data set [6]: The drug is tested on Z-013 corresponding to rabbit gut metagenome with ENA study accession number: PRJEB37062 and ENA sample accession number: ERS12561813 for biotransformation under anaerobic condition. The drug concentrations were measured over 9 timepoints collected between 0 and 24 hours of incubation by liquid-chromatography-coupled mass spectrometry (LC–MS). The conditions noted are these: 2 µM.

Data set [7] is described as follows: The drug is tested on Z-007 corresponding to rat gut metagenome with ENA study accession number: PRJEB37062 and ENA sample accession number: ERS12561807 for biotransformation under anaerobic condition. The drug concentrations were measured over 9 timepoints collected between 0 and 24 hours of incubation by liquid-chromatography-coupled mass spectrometry (LC–MS). As to conditions: 2 µM.

The nature of data set [8]: The drug is tested on Z-005 corresponding to metagenome with ENA study accession number: PRJEB37062 and ENA sample accession number: ERS12561805 for biotransformation under anaerobic condition. The drug concentrations were measured over 9 timepoints collected between 0 and 24 hours of incubation by liquid-chromatography-coupled mass spectrometry (LC–MS). As to conditions: 2 µM.

Data set [9] can be described thus: The drug is tested on Z-002 corresponding to rabbit gut metagenome with ENA study accession number: PRJEB37062 and ENA sample accession number: ERS12561802 for biotransformation under anaerobic condition. The drug concentrations were measured over 9 timepoints collected between 0 and 24 hours of incubation by liquid-chromatography-coupled mass spectrometry (LC–MS). The conditions noted are these: 2 µM.

Data set [10] is described as follows: The drug is tested on WLS-052 corresponding to human gut metagenome with ENA study accession number: PRJEB37062 and ENA sample accession number: ERS12561747 for biotransformation under anaerobic condition. The drug concentrations were measured over 9 timepoints collected between 0 and 24 hours of incubation by liquid-chromatography-coupled mass spectrometry (LC–MS). As to conditions: 2 µM.

The nature of data set [11]: The drug is tested on WLS-038 corresponding to human gut metagenome with ENA study accession number: PRJEB37062 and ENA sample accession number: ERS12561745 for biotransformation under anaerobic condition. The drug concentrations were measured over 9 timepoints collected between 0 and 24 hours of incubation by liquid-chromatography-coupled mass spectrometry (LC–MS). As to conditions: 2 µM.

Data set [12] in a line: The drug is tested on WLS-027 corresponding to human gut metagenome with ENA study accession number: PRJEB37062 and ENA sample accession number: ERS12561744 for biotransformation under anaerobic condition. The drug concentrations were measured over 9 timepoints collected between 0 and 24 hours of incubation by liquid-chromatography-coupled mass spectrometry (LC–MS). As to conditions: 2 µM.

Data set [13] is described as follows: The drug is tested on WLS-007 corresponding to human gut metagenome with ENA study accession number: PRJEB37062 and ENA sample accession number: ERS12561742 for biotransformation under anaerobic condition. The drug concentrations were measured over 9 timepoints collected between 0 and 24 hours of incubation by liquid-chromatography-coupled mass spectrometry (LC–MS). As to conditions: 2 µM.

The conditions of data set [14]: human gut metagenome, 24 h, 2 µM.
For data set [15] the following is noted: human gut metagenome, 24 h, 2 µM. The source holds these as a separate data set.
The conditions of data set [16]: human gut metagenome, 24 h, 2 µM. This is another data set of the same source.
The conditions of data set [17]: human gut metagenome, 24 h, 2 µM. The source holds these as a separate data set.
The conditions of data set [18]: human gut metagenome, 24 h, 2 µM. The source holds these as a separate data set.
For data set [19] the following is noted: human gut metagenome, 24 h, 2 µM. The source holds these as a separate data set.
For data set [20] the following is noted: human gut metagenome, 24 h, 2 µM. The source holds these as a separate data set.
Also: call rule not given here.

Regarding `CN(C)CC(c1ccc(O)cc1)C1(O)CCCCC1.O=C(O)CCC(=O)O` (stereo not given) [DESVENLAFAXINE SUCCINATE], the “Bacterial Biotransformation” value in data set [1], in [2], in [3], in data set [4], in data set [5] and in [6] was “Compound NOT metabolized” in each case. For the same compound, the “Bacterial Biotransformation” value in [7], in [8], in [9], in data set [10], in data set [11] and in data set [12] was “Compound NOT metabolized” in each case. The “Bacterial Biotransformation” value in [13], in data set [14], in data set [15], in data set [16], in data set [17] and in [18] was “Compound NOT metabolized” in each case. The “Bacterial Biotransformation” value in data set [19] and in data set [20] was “Compound NOT metabolized” each time.
Regarding `CN1CCN(C(=O)O[C@H]2c3nccnc3C(=O)N2c2ccc(Cl)cn2)CC1` [ESZOPICLONE], the “Bacterial Biotransformation” value in [1], in data set [2], in [3], in [4], in [5] and in data set [6] was “Compound NOT metabolized” each time. In addition, the “Bacterial Biotransformation” value in [7], in [8], in [9], in data set [10], in data set [11] and in data set [12] was “Compound NOT metabolized” each time. Moreover, the “Bacterial Biotransformation” value in data set [13], in data set [14], in data set [15], in [16], in [17] and in data set [18] was “Compound NOT metabolized” in each case. The “Bacterial Biotransformation” value in data set [19] and in data set [20] was “Compound NOT metabolized” in each case.
On to `O=C1[C@H](CC[C@H](O)c2ccc(F)cc2)[C@@H](c2ccc(O)cc2)N1c1ccc(F)cc1` [EZETIMIBE], for which the “Bacterial Biotransformation” value in data set [1], in data set [2], in data set [3], in data set [4], in data set [5] and in data set [6] was “Compound NOT metabolized” throughout. Besides, the “Bacterial Biotransformation” value in [7], in [8], in data set [9], in data set [10], in [11] and in data set [12] was “Compound NOT metabolized” in each case. Besides, the “Bacterial Biotransformation” value is on record as “Compound metabolized” in data set [13]; “Compound metabolized” in data set [14]; “Compound metabolized” in data set [15]; “Compound NOT metabolized” in [16]; “Compound NOT metabolized” in [17]; “Compound metabolized” in data set [18]. For the same compound, the “Bacterial Biotransformation” value in data set [19] is “Compound NOT metabolized”; in data set [20] it was “Compound metabolized”.
